For five compounds, LD50 and Activity results are on record in ChEMBL document CHEMBL1123523, “Oxidation of 5-hydroxytryptamine and 5,7-dihydroxytryptamine. A new oxidation pathway and formation of a novel neurotoxin” (J Med Chem, 1986).

For the first series, the system named is Mus musculus. Description: Compound was tested for neurotoxic property after intracranial administration in mice. Format: ADME, organism-based. The note with it: in vivo, other.
With `NCCc1c[nH]c2c1C(=O)C(=O)C=C2O`, the LD50 worked out at 20 µg.

Consider `NCCc1cc(O)c(O)cc1N`, for which the LD50 is 50 µg.

The compound `CC(N)Cc1cc(O)c(O)cc1N` (stereo unspecified) yielded an LD50 of 45 µg.

`NCCc1c[nH]c2c(O)cc(O)cc12` gave an LD50 of 55 µg.

On to `NCCc1cc(O)c(O)cc1O` [OXIDOPAMINE], for which the LD50 was determined as 80 µg.

The species named for the next series is Mus musculus. Description: Compound was tested for lowering the norepinephrine levels in mouse brain expressed as percent of control values. Type of series: functional.
Conditions: not given
In the case of `NCCc1c[nH]c2c1C(=O)C(=O)C=C2O`, the Activity was found to be 87%.
